Experimental data as given in patent US5514704A, “Benzothiophenes to inhibit leukotrienes” (Eli Lilly and Company, priority 1995, dated 1996).

Key:
cPLA2 [1] = target: T1, cPLA2 (Homo sapiens, UniProt P47712); assay: cPLA2 Enzymatic Activity Assay, 14C-PC/DG liposome substrate; type: biochemical
T1 sequence (P47712 1-749): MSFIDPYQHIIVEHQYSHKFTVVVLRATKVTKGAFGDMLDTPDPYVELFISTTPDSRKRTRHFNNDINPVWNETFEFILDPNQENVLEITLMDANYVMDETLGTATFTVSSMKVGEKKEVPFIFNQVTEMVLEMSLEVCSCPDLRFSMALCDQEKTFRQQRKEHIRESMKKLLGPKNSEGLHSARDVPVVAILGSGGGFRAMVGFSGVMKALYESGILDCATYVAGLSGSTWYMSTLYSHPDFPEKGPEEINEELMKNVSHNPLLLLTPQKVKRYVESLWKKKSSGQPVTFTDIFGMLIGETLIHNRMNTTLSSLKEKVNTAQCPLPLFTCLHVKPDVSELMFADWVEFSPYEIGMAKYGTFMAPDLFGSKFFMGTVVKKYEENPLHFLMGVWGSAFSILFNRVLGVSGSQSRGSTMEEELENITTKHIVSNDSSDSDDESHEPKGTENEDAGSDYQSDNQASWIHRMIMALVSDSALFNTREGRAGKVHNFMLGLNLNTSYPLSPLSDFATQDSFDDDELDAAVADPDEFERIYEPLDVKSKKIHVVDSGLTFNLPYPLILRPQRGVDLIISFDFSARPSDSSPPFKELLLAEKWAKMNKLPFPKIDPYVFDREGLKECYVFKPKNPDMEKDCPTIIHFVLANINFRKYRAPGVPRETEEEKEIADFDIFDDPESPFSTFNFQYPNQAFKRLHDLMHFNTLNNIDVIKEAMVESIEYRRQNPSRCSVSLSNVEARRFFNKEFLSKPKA
Method: (§1) The substrate, sonicated liposomes containing 1-palmitoyl-2 ^14 C!arachidonoyl-sn-glycerol-3-phosphocholine ( ^14 C!PC, 55 mCi/mmol from NEN Research Products) and sn-1,2-dioleoylglycerol (DG, Avanti Polar Lipids, Birmingham, Ala.) at a molar ratio of 2:1, are prepared as follows. ^14 C!PC (20 nmol, 1×10^6 dpm, 50 uCi/ml in toluene/ethanol) and DG (10 nmol, 100 ug/ml in chloroform) are dried under nitrogen. The lipids are dispersed in 1 ml of 150 mM NaC1, 50 mM Hepes, pH 7.5 (assay buffer) by sonication at 4° C., with Microson probe-sonicator (Heat Systems Ultrasonics) for 4×15 seconds, with 45 second intervals. Bovine serum albumin (essentially fatty acid free, from a 100 mg/ml stock in water, Sigma) is added to a final concentration of 4 mg/ml. Samples to be assayed for cPLA2 activity are incubated with 50 ul liposomes (0.5 nmol ^14 C!PC, 50,000 dpm containing 0.25 nmol of DG) in a total volume of 0.2 ml of assay buffer containing 1 mM CaCl2 and 1 mM 2-ME. Incubations are carried out at 37° C. for 15 minutes and terminated by adding 2 ml of Dole's reagent (2-propanol/heptane/0.5M sulfuric acid, 40:10:1 containing 10 ug/ml of stearic acid). After mixing, 1.2 ml of heptane and 1 ml of water are added. The mixtures are briefly vortexed and the upper phase transferred to tubes containing 2 ml of heptane and 150 mg of Bio-Sil (Bio-Rad Laboratories) activated at 130° C. before use. The tubes are thoroughly vortexed and centrifuged (1000×g for 5 minutes). The supernatants are decanted into scintillation vials. After addition of 10 ml of a liquid scintillation cocktail (Ready Protein+, Beckman) radioactivity is counted using a Beckman liquid scintillation counter Model LS 7000. High radioactive counts correlate with enzymatic activity. The chromogenic cPLA2 enzyme assay used is analogous to Reynolds et al., Analytical Biochemistry, 217, 25-32 (1194).
(§2) (The results are in IC50 μM). (Compound A is a compound of formula II where R6 and R7 are hydrogen, and R5 is phenyl. Compound B is a compound of formula I where R1, R2 and R3 are hydrogen. Compound C is a compound of formula II wherein R6 and R7 are methyl, and R5 is p-methoxyphenyl. Compound D is a compound of formula II wherein R1 and R2 are hydrogen, and R5 is p-hydroxyphenyl.)

[2] = MCII mast cell toxicity assay (XTT); type: cell-based; details: mouse, mcii mast cells, 4-12 hours, 37° C., read-out: MCII Mast Cell Toxicity (IC50)
Source text: This toxicity assay is run in parallel with the MCII mast cell LTC4 assay and serves as an indicator of compound effects on the viability and metabolic activity of the MCII cells. This "toxicity" assay is based on the ability of dehydrogenase enzymes present in viable metabolically active cells to bioreduce the tetrazolium salt XTT yielding a colored, water soluble formazan product. (see, Roehm et al.) "An improved colorimetric assay for cell proliferation and viability utilzing the tetrazolium salt XTT. J. Immunol. Methods […] (1991).
A duplicate polystyrene 96-well tissue culture plate (Costar) is set up with sensitized MCII cells, EM95 ascites, media and dilutions of the test compound as described above. The complete media is supplemented with concanavalin A induced culture supernatants from the mouse helper T cell clone D10.G4, as a source of mast cell growth factors.
Wells of the toxicity assay plate are pulsed with 25 μl XTT (Sigma) plus phenazine methosulfate (Aldrich) giving a final concentration of 0.2 mg/ml XTT and 25 μM phenazine methosulfate. The plates are incubated at 37° C. in 10% CO2 for 4-12 hours and then production of the XTT formazan product determined by measuring the optical density of the wells at a wavelength of 450 nm. The positive control on each plate is stimulated MCII cells with dimethyl sulfoxide vehicle alone and the negative control is the same reaction mixture without cells. The background negative control value is subtracted from experimental and positive control values and the data are reported as percent of positive control.
as §2

5-lipoxygenase = target: T2, 5-lipoxygenase (Homo sapiens, UniProt P09917); assay: 5-Lipoxygenase (5-LPO) Assay: inhibition of leukotriene B4 formation by human neutrophil 20,000×g supernatant; type: biochemical
T2 construct: The resultant supernatant containing the cytosolic 5-lipoxygenase activity is stored frozen; from tissue; host or cells: peripheral blood neutrophils, 20,000×g supernatant of sonicate
T2 sequence (P09917 1-674): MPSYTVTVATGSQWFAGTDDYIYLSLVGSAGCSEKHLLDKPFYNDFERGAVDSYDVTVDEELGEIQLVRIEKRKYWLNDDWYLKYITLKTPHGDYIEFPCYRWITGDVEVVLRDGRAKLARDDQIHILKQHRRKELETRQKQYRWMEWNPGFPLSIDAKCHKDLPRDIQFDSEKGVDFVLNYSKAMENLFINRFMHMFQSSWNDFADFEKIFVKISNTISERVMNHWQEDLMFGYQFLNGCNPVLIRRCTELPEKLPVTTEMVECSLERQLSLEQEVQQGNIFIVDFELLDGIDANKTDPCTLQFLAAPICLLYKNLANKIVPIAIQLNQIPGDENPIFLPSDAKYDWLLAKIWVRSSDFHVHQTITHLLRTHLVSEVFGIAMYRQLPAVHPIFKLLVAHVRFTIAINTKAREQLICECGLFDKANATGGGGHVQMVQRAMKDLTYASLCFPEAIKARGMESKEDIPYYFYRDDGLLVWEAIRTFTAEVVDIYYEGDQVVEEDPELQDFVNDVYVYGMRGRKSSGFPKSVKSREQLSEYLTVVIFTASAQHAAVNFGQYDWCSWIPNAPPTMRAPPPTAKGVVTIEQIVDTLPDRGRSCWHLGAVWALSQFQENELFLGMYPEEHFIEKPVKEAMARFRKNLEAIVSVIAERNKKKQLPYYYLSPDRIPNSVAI
Method: To determine the effect of compounds on 5-lipoxygenase activity, peripheral blood neutrophils are separated by density centrifugation as described (Marder et al., Prostaglandins Leukot. and Essent. Fatty Acids 46, 265-270, 1992) and the cytosolic 5-lipoxygenase is prepared from isolated neutrophils according to a modification of Carter et al., (J. Pharmacolo Exp. Thero 256, 929-937 (1991)). Briefly, neutrophils are washed twice in buffer (in millimolar: PIPES, 10; BES, 10; and EDTA, 1; pH 6.8) and diluted to 2.5×10^7 cells/ml. Cells are disrupted with sonication and the cytosolic fraction obtained by centrifugation at 20,000×g for 20 min. at 4° C. The resultant supernatant containing the cytosolic 5-lipoxygenase activity is stored frozen at -70° C. prior to use. Compounds are evaluated for 5-lipoxygenase inhibitory activity. Varying concentration of compounds in 200 ml aliquots containing 50 ml of human 20,000×g supernatant in assay buffer (in millimolar: PIPES, 10; BES, 10; EDTA, 1; NaCl, 100; ATP, 1.56; and CaCl2, 2.5; pH 6.8) containing 3.0 mM AA are used. The reaction proceeds for 5 minutes at 37° C. and is terminated upon the addition of 50 ml EDTA (250 mM). The percent inhibition of leukotriene B4 is determined for each concentration of test compound as compared to vehicle (containing no compound) control. The concentration representing 50% inhibition (IC50) is determined by standard mathematical techniques. Leukotriene B4 is determined by EIA. EIA reagents were purchased from Caymen Chemical Co. (Ann Arbor, Mich.) and used according to the assay procedures as outlined therein.

[3] = system: thromboxane B2 (TxB2) production, human plasma-depleted blood; assay: Inhibition of TxB2 production by plasma-depleted blood; type: cell-based; details: read-out: Plasma DPLTD Blood TxB2 (IC50)
Method: Compounds are evaluated for their ability to inhibit production of leukotriene B4 (LTB4) and thromboxane B2 (TxB2) upon stimulation of human plasma-depleted blood with formyl-methionyl-leucyl-phenylalanine (FMLP) and thrombin. LTB4 is produced by neutrophils and TxB2 by platelets stimulated at their respective receptors with FMLP and thrombin. The assay is carried out in 1 ml deep well polypropylene 96-well plates (Beckman). For the tests ten ml of blood is collected in EDTA at a final concentration of 1.5 mg/ml. Then, 40 ml glucose phosphate buffer containing 0.1% gelatin is added and the suspension centrifuged at 900 g for 10 minutes at room temperature. The supernatant is discarded and the cells washed once with 50 ml buffer before resuspending them in 50 ml Krebs-Ringers-Henseleit Buffer containing 0.1% gelatin, 1 mM CaCl2, 1.1 mM MgCl2 (KRH buffer). Working solutions of test compounds are made by dissolving the material in DMSO at 10 mM and diluting with appropriate amounts of KRH buffer. An agonist solution is made containing 1 μM FMLP (sigma) and 10 units/ml of thrombin in KRH buffer (Enzyme Research Labs). […] The amount of LTB4 and TxB2 produced is determined by the use of a competitive enzyme immunoassay using commercial reagents from Cayman Chemical. […]

cPLA2 [4] = target: T1, cPLA2; assay: cPLA2 enzyme assay, chromogenic; type: biochemical
Method: as §1, with “The mixtures are briefly vortexed and the upper phase transferred to tubes containing 2 ml of heptane and 150 mg of Bio-Sil (Bio-Rad Laboratories) activated at 130° C. before use. The tubes are thoroughly vortexed and centrifuged (1000×g for 5 minutes). The supernatants are decanted into scintillation vials.” left out, “High radioactive counts correlate with enzymatic activity. The chromogenic cPLA2 enzyme assay used is analogous to Reynolds et al., Analytical Biochemistry, 217, 25-32 (1194).” left out

Compound	IC50 (cPLA2 [1]; 14C-PC/DG liposomes, 37° C., 15 min, pH 7.5, read-out: C-PLA2 Enzyme, C14PC/DA6 (IC50)) [µM]	CC50 [2] [µM]	IC50 (5-lipoxygenase) [µM]	IC50 (cPLA2 [1]) [µM]	IC50 [3] [µM]	IC50 (cPLA2 [4]) [µM]
O=C(c1ccccc1)c1c(-c2ccc(O)cc2)sc2cc(O)ccc12 [Compound A]	7.3 ± 0.5	0.3				
Oc1ccc(-c2cc3ccc(O)cc3s2)cc1 [Compound B]		< 10	0.2 ± 0.007	7 ± 0.8		
O=C(c1ccc(O)cc1)c1c(-c2ccc(O)cc2)sc2cc(O)ccc12 [Compound D]					> 9.8	
O=C(c1ccc(-c2ccccc2)cc1)c1c(-c2ccc(O)cc2)sc2cc(O)ccc12 [Example 1, 6-hydroxyphenyl-2-(p-hydroxyphenyl)-(benzo(B)thien-3-yl)(p-phenyl)phenyl methanone]		> 10		< 1.2		146
O=C(c1cccc2ccccc12)c1c(-c2ccc(O)cc2)sc2cc(O)ccc12 [Example 2, 6-hydroxyphenyl-2-(p-hydroxyphenyl)-(benzo(B)thien-3-yl)(α-napthyl)methanone]		> 10	1.7 ± 0.9	4.8 ± 1.6		
O=C(c1ccc2ccccc2c1)c1c(-c2ccc(O)cc2)sc2cc(O)ccc12 [Example 3, 6-hydroxyphenyl-2-(p-hydroxyphenyl)-(benzo(B)thien-3-yl)(β-napthyl)methanone]		> 10	1 ± 0.5	2.3 ± 0.6		122
